Laboratory results: patent publication US20050118244A1, “Transmittal therapeutic systems containing steroid hormones and propylene glycol monocaprylate” (LTS Lohmann Therapie-System AG, priority 2001, published 2005)

Test: Flux of active ingredient from transdermal therapeutic system in modified Franz diffusion cell
Format: in vitro ADME, human
Details: for Cumulative amount of active ingredient after 3 days: human epidermis, 32° C.
Method: The measurements were carried out as follows: a modified Franz diffusion cell and, in each case, a transdermal therapeutic system with an effective diffusion area of 4.1 cm^2 was used. The test temperature was 32° C. The flux of active ingredient was measured on an epidermis from human skin. The acceptor used was an aqueous solution of 0.1% hydroxypropyl-β-cyclodextrin+0.1% NaN3; the acceptor volume was 9 ml (volume exchange after 32, 48, 56 and 72 hours).

SMILES	Cumulative amount of active ingredient after 3 days (TTS formula: Testosterone 2.0 % by weight, Durotak 2287 93.0 %, propylene glycol monocaprylate 5.0 %) [μg/cm^2]	Cumulative amount of active ingredient after 3 days (TTS formula: Testosterone 2.0 % by weight, Durotak 2287 98.0 %, no penetration promoter) [μg/cm^2]	Increase of the flux of active ingredient on use of 5% propylene glycol monocaprylate (TTS with 5% propylene glycol monocaprylate versus TTS without, Examples 1 and 2)	Cumulative amount of active ingredient after 3 days (TTS formula: Progestogen (Org 30659) 5.0 % by weight, Durotak 2287 90.0 %, propylene glycol monocaprylate 5.0 %) [μg/cm^2]	Cumulative amount of active ingredient after 3 days (TTS formula: Progestogen (Org 30659) 5.0 % by weight, Durotak 2287 95.0 %, no penetration promoter) [μg/cm^2]
C[C@]12CC[C@H]3[C@@H](CCC4=CC(=O)CC[C@@]43C)[C@@H]1CC[C@@H]2O [Testosterone, testosterone]	36.2	30.2	about 20%		
C#C[C@]1(O)C=C[C@H]2[C@@H]3CCC4=CC(=O)CC[C@@H]4[C@H]3C(=C)C[C@@]21C [Progestogen (Org 30659), (17α)-17-hydroxy-11-methylene-19-norpregna-4,15-dien-20-yn-3-one]				51.3	44.7
